This passage reports IC50 results from ChEMBL document CHEMBL3784917, “Recent Progress in Histone Demethylase Inhibitors” (J Med Chem, 2016).

By IC50 is commonly meant the concentration at which inhibition is half-maximal.

Each structure is given as a SMILES string.

The target of experiment [1] is T1, Lysine-specific demethylase 5B (Homo sapiens, UniProt Q9UGL1).
The target of experiment [2] is T2, Lysine-specific demethylase 4C (Homo sapiens, UniProt Q9H3R0).
T2 sequence (Q9H3R0 whole entry): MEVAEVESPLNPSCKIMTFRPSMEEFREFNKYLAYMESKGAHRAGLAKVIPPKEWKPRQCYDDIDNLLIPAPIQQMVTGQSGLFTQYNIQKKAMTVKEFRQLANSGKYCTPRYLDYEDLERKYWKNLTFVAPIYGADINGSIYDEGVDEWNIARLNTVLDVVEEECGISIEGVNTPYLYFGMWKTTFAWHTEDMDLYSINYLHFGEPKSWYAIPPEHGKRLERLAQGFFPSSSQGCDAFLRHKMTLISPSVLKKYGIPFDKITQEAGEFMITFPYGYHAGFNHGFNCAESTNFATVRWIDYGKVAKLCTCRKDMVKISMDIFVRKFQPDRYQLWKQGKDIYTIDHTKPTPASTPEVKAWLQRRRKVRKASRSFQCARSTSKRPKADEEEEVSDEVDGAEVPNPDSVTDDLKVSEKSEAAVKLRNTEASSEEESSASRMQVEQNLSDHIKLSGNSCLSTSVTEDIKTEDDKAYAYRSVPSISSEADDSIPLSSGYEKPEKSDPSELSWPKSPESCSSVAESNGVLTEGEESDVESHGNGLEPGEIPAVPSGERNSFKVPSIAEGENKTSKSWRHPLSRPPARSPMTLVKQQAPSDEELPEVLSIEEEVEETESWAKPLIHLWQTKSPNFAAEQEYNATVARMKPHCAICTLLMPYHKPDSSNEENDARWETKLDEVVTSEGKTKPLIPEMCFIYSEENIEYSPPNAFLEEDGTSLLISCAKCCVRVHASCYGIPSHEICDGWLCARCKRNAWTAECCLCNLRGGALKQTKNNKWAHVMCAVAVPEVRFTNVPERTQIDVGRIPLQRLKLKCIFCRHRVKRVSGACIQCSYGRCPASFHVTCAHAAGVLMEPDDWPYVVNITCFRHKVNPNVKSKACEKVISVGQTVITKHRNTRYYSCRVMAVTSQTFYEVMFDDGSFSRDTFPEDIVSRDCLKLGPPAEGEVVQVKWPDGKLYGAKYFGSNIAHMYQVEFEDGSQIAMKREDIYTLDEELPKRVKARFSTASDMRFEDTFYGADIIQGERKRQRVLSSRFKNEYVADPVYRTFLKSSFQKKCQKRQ
In words: Inhibition of recombinant N-terminal FLAG-tagged Tev-KDM4C (1 to 366 residues) (unknown origin) using […] as substrate preincubated for 10 mins followed by substrate addition by rapid fire demethylase assay.

Experiment [3] is described as follows: Antiproliferative activity against human KYSE-150 cells expressing KDM4C. The format is functional, cell-based.
Experiment [4] has as its target Lysine-specific demethylase 5A (Homo sapiens, UniProt P29375).
In experiment [5] the target is T3, Lysine-specific histone demethylase 1A (Homo sapiens, UniProt O60341).
Experiment [6] addresses T4, Lysine-specific demethylase 2B (Homo sapiens, UniProt Q8NHM5).
T4 sequence (Q8NHM5 whole entry): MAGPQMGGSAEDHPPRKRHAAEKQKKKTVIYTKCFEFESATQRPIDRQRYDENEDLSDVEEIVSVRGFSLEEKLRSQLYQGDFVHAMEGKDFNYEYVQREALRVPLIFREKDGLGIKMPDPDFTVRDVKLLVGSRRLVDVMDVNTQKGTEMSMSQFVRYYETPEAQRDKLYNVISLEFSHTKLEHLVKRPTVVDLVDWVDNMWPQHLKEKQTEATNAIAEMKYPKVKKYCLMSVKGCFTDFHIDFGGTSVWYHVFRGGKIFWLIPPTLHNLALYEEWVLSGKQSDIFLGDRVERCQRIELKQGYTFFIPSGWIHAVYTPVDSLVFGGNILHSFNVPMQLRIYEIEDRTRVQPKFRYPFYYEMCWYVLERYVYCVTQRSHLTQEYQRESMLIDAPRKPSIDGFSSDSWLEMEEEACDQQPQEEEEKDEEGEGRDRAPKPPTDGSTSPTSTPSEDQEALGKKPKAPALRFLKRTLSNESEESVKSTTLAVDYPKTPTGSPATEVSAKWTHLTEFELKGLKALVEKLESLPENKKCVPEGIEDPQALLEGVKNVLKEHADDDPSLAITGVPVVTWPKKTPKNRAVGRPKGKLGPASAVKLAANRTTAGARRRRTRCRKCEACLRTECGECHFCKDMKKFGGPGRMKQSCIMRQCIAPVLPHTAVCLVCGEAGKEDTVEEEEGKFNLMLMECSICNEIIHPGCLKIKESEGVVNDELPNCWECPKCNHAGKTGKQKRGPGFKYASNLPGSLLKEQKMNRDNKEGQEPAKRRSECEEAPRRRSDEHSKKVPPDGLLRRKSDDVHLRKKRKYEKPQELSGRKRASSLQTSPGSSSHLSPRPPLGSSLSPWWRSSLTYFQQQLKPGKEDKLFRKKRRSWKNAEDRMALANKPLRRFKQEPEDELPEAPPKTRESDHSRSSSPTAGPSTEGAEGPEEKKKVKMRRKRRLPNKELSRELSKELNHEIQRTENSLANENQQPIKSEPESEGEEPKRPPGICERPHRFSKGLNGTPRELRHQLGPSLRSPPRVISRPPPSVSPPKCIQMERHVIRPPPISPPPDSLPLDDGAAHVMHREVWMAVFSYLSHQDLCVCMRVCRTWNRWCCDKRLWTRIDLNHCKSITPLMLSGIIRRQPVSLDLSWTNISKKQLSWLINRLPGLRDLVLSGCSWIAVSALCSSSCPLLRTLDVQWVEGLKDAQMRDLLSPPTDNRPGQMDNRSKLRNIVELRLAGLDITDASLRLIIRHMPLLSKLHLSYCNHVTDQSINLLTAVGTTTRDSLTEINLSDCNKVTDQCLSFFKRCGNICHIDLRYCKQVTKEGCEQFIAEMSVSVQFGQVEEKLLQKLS
In words: biochemical.

In experiment [7] the target is T1, Lysine-specific demethylase 5B. The source holds these as a separate data set.
Experiment [8] concerns the target Lysine-specific demethylase 6A (Homo sapiens, UniProt O15550).
In experiment [9] the target is T3, Lysine-specific histone demethylase 1A. Kind of experiment: biochemical.
In experiment [10] the target is T5, Amine oxidase [flavin-containing] B (Homo sapiens, UniProt P27338).
T5 sequence (P27338 whole entry): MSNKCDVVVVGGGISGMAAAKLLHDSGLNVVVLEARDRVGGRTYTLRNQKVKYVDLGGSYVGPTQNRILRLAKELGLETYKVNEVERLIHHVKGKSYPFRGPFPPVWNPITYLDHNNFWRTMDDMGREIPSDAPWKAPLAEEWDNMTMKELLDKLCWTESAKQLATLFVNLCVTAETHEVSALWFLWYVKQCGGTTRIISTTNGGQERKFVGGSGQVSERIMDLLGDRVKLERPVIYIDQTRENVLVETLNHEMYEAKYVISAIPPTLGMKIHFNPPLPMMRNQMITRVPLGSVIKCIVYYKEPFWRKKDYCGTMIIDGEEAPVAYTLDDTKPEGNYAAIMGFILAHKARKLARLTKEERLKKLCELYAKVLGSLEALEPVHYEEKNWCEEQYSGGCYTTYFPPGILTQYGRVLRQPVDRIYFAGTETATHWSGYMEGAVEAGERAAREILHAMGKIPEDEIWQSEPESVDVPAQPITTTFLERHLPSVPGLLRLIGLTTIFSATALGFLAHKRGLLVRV

T1 sequence (Q9UGL1 whole entry): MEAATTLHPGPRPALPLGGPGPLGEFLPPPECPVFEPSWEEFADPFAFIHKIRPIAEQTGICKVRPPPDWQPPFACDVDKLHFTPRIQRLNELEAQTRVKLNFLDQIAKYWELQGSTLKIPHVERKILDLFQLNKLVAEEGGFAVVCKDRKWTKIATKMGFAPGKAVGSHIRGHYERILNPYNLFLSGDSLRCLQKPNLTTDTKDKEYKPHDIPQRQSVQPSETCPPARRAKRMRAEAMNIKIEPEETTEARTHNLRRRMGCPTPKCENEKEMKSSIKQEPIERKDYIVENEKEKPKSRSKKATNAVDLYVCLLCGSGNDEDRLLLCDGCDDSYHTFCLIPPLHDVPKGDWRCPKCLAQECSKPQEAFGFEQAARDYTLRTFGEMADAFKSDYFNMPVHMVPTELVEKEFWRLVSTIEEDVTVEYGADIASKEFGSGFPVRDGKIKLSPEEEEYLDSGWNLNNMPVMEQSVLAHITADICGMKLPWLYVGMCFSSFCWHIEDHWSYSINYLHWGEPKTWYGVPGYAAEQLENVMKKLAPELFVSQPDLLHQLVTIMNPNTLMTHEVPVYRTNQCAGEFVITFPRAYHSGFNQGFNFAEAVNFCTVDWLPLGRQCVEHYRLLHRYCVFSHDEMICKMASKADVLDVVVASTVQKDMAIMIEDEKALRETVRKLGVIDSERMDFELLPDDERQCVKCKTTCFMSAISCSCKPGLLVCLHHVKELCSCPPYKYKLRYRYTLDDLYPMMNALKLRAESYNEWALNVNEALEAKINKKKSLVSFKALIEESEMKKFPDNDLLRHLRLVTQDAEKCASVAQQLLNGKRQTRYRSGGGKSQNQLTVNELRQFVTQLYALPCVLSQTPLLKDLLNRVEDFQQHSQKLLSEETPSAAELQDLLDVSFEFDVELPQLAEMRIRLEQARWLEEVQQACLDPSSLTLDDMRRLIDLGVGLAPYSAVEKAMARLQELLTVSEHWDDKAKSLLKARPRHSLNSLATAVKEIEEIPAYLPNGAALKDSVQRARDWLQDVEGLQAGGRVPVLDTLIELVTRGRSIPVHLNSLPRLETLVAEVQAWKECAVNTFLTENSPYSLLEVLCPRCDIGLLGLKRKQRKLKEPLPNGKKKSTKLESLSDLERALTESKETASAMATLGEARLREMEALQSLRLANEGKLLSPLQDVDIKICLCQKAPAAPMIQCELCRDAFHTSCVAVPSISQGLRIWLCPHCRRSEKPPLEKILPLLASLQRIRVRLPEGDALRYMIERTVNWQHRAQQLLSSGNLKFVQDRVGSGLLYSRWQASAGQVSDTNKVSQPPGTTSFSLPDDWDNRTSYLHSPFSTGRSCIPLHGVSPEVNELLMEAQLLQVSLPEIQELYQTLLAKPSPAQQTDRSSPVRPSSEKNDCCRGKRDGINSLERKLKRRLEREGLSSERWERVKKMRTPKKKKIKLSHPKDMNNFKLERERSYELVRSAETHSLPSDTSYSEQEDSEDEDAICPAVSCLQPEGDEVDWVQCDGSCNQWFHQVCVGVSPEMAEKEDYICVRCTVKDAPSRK
Sequence of Lysine-specific demethylase 5A (P29375 whole entry): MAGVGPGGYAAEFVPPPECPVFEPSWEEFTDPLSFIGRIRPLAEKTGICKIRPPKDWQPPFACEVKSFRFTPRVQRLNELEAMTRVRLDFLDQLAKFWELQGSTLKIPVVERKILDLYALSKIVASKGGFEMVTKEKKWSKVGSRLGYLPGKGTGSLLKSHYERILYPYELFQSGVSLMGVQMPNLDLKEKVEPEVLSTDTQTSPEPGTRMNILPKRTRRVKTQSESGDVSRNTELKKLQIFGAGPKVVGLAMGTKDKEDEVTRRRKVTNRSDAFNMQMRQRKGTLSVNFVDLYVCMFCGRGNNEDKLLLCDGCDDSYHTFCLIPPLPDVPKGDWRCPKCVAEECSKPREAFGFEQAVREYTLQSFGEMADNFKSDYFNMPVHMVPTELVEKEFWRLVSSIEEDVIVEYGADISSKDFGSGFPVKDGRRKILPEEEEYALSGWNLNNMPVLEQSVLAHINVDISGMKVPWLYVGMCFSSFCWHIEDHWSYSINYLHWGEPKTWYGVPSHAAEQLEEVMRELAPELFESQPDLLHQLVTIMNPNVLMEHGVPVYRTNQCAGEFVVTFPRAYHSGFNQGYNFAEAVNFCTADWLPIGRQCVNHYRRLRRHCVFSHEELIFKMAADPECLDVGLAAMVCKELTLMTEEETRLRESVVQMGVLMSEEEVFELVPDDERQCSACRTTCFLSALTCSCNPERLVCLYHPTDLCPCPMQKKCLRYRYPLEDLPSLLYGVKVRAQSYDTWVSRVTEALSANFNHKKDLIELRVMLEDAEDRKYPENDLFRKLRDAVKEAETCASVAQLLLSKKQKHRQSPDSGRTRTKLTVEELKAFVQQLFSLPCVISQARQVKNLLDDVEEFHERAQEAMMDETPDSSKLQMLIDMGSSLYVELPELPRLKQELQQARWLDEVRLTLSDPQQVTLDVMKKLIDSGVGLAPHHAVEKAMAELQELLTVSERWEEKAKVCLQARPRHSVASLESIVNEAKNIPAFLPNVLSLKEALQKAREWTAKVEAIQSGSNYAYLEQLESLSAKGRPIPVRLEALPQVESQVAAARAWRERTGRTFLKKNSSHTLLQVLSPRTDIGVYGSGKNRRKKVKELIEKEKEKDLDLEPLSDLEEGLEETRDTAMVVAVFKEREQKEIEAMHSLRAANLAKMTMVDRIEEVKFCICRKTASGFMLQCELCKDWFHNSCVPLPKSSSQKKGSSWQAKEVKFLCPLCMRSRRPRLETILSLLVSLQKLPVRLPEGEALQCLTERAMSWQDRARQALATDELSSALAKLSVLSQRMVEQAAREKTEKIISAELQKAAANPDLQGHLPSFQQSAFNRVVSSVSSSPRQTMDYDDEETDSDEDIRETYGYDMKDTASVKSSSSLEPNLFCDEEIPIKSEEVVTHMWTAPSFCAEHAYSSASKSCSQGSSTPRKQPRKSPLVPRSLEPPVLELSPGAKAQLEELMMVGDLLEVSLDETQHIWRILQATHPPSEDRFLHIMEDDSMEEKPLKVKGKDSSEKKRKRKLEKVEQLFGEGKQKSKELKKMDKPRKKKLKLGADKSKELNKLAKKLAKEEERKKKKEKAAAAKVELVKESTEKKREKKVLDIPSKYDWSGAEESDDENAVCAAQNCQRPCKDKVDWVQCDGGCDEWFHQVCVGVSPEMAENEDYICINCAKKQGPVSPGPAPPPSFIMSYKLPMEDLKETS
Sequence of Lysine-specific demethylase 6A (O15550 whole entry): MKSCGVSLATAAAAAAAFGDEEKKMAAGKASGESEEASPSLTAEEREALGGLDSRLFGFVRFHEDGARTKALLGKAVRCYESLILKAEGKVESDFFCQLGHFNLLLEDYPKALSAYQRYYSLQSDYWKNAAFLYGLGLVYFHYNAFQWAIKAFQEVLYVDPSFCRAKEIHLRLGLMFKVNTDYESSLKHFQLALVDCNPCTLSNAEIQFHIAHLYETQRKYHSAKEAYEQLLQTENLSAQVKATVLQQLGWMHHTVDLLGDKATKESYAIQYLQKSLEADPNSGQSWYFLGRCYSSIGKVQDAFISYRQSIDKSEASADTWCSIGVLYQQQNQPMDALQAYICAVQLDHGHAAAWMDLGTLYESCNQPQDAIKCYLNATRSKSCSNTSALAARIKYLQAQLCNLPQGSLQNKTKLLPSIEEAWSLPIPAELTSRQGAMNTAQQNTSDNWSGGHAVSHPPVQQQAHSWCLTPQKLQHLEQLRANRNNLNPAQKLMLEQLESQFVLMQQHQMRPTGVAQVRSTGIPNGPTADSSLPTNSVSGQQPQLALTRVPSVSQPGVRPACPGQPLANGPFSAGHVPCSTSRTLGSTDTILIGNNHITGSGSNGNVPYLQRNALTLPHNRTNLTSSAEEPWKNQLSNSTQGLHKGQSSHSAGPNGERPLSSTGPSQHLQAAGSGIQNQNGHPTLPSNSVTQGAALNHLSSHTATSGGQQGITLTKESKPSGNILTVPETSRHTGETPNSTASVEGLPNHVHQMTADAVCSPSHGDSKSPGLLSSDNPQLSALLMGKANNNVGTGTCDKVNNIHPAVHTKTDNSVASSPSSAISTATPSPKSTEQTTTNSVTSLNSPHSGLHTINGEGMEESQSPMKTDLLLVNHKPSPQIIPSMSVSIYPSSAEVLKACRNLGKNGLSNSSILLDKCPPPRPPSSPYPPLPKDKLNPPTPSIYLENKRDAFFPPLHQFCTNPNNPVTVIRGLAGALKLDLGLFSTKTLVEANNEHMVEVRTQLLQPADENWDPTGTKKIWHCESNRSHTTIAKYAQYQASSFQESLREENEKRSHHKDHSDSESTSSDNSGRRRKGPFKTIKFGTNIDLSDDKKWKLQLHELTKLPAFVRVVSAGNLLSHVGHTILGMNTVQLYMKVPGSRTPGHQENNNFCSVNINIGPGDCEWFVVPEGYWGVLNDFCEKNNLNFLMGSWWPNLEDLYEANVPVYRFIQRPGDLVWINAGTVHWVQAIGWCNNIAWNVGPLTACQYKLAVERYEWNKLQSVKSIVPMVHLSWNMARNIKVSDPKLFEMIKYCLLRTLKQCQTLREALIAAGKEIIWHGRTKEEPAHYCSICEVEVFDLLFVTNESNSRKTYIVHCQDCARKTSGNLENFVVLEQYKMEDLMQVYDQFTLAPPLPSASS

For `CCS(=O)(=O)N1CC[C@H](n2cc(Oc3nc(O)c4ccncc4n3)cn2)C1`, the IC50 in experiment [1] was less than 100 nM; in experiment [2], less than 100 nM; in experiment [3] it was 100 nM; in experiment [4], less than 100 nM.
`COC1(CN[C@@H]2C[C@H]2c2ccccc2)CCN(S(=O)(=O)c2ccn(C)n2)CC1` had an IC50 in experiment [5] of less than 100 nM.
Take `Oc1nc(Oc2cnn([C@@H]3CCCN(Cc4ccccc4)C3)c2)nc2cnccc12`: the IC50 in [1] is less than 100 nM; in experiment [2], less than 100 nM; in experiment [3], 100 nM; in experiment [4] it was less than 100 nM.
With `Oc1nc(Oc2cnn(CCN3CCOCC3)c2)nc2cnccc12`, the 50% inhibitory concentration (IC50) in [1] is less than 100 nM; in experiment [2], less than 100 nM; in experiment [3] it was 100 nM; in experiment [4] it was less than 100 nM.
As to `CN(C)CC(=O)N1CCC(CN[C@@H]2C[C@H]2c2ccccc2)(Cc2cccc(C#N)c2)CC1`, in experiment [5], the IC50 was less than 100 nM.
The same measure, in the same setting: next, `O=C(O)CC1(N2CCC(N[C@@H]3C[C@H]3c3ccccc3)CC2)CN(CCC(F)(F)F)C1`: less than 100 nM.
On to `CCN1CCC[C@H](CNCc2cc(C(=O)O)ccn2)C1=O`, for which the IC50 in experiment [6] was less than 250 nM; in experiment [7], less than 250 nM; in experiment [8], more than 2500 nM.
As for `c1ccc(CN2CCC(CN[C@@H]3C[C@H]3c3ccccc3)CC2)cc1` (racemic), the 50% inhibitory concentration (IC50) in experiment [9] was determined as 6 nM; in experiment [10], 25000 nM.
For `CN1CCC(CN[C@@H]2C[C@H]2c2ccccc2)CC1` (racemic), in that order: 6 nM and 25000 nM.
In turn, `Nc1ccnc(N2CCC(N[C@@H]3C[C@H]3c3ccccc3)CC2)n1` returned an IC50 in experiment [5] of less than 100 nM.
Take `Cn1cnc(-c2nccc3c(O)nc(OCCCC(F)(F)F)nc23)c1`: the 50% inhibitory concentration (IC50) in experiment [1] was less than 100 nM; in experiment [2] it was 100 nM; in [3], 100 nM; in experiment [4], less than 100 nM.
